Laboratory results from patent US12396461B2, “Functional peptides having antimicrobial activity against phytopathogenic microorganisms” (TOYOTA JIDOSHA KABUSHIKI KAISHA, priority 2019, dated 2025).
Like-named read-outs stand apart in the source and are kept apart here.

Columns and labels:
Type in all cases: cell-based
[1] = tested on: Colletotrichum destructivum; parameters: key to Plate antimicrobial activity test Colletotrichum destructivum, level: a case where hyphae extended to the entire well and no antimicrobial activity was found is defined as “level 0,”; a case where hyphae extended to less than a half of the well and thus the peptide inhibited the growth of the hyphae is defined as “level 1,”; a case where ungerminated spores were present and the peptide partially inhibited the germination is defined as “level 2,”; a case where all spores were ungerminated and the peptide completely inhibited the germination is defined as “level 3.”; conditions: 25° C. for 1 day or 2 days, microscopic observation
[2] = tested on: Colletotrichum orbiculare; parameters: key to Plate antimicrobial activity test Colletotrichum orbiculare, level: a case where hyphae extended to the entire well and no antimicrobial activity was found is defined as “level 0,”; a case where hyphae extended to less than a half of the well and thus the peptide inhibited the growth of the hyphae is defined as “level 1,”; a case where ungerminated spores were present and the peptide partially inhibited the germination is defined as “level 2,”; a case where all spores were ungerminated and the peptide completely inhibited the germination is defined as “level 3.”; conditions: 25° C. for 1 day or 2 days, microscopic observation
[3] = tested on: Pyricularia oryzae; parameters: key to Plate antimicrobial activity test Pyricularia oryzae, level: a case where hyphae extended to the entire well and no antimicrobial activity was found is defined as “level 0,”; a case where hyphae extended to less than a half of the well and thus the peptide inhibited the growth of the hyphae is defined as “level 1,”; a case where ungerminated spores were present and the peptide partially inhibited the germination is defined as “level 2,”; a case where all spores were ungerminated and the peptide completely inhibited the germination is defined as “level 3.”; conditions: 25° C. for 1 day or 2 days, microscopic observation
[4] = tested on: Botrytis cinerea; parameters: key to Plate antimicrobial activity test Botrytis cinerea, level: a case where hyphae extended to the entire well and no antimicrobial activity was found is defined as “level 0,”; a case where hyphae extended to less than a half of the well and thus the peptide inhibited the growth of the hyphae is defined as “level 1,”; a case where ungerminated spores were present and the peptide partially inhibited the germination is defined as “level 2,”; a case where all spores were ungerminated and the peptide completely inhibited the germination is defined as “level 3.”; conditions: 25° C. for 1 day or 2 days, microscopic observation
[5] = tested on: Fusarium oxysporum; parameters: key to Plate antimicrobial activity test Fusarium oxysporum, level: a case where hyphae extended to the entire well and no antimicrobial activity was found is defined as “level 0,”; a case where hyphae extended to less than a half of the well and thus the peptide inhibited the growth of the hyphae is defined as “level 1,”; a case where ungerminated spores were present and the peptide partially inhibited the germination is defined as “level 2,”; a case where all spores were ungerminated and the peptide completely inhibited the germination is defined as “level 3.”

IVVKT (listed as Solanum lycopersicum) [TsORF6-1-5aa-5, partial peptide of TsORF6-1, 5 amino acid residues]
0: Plate antimicrobial activity test Colletotrichum destructivum, level ([1]; peptide 1 μM) | Plate antimicrobial activity test Colletotrichum destructivum, level ([1]; peptide 10 μM) | Plate antimicrobial activity test Colletotrichum destructivum, level ([1]; peptide 100 μM) | Plate antimicrobial activity test Colletotrichum orbiculare, level ([2]; peptide 1 μM) | Plate antimicrobial activity test Colletotrichum orbiculare, level ([2]; peptide 10 μM) | Plate antimicrobial activity test Colletotrichum orbiculare, level ([2]; peptide 100 μM) | Plate antimicrobial activity test Pyricularia oryzae, level ([3]; peptide 1 μM) | Plate antimicrobial activity test Pyricularia oryzae, level ([3]; peptide 10 μM) | Plate antimicrobial activity test Pyricularia oryzae, level ([3]; peptide 100 μM) | Plate antimicrobial activity test Botrytis cinerea, level ([4]; peptide 1 μM) | Plate antimicrobial activity test Botrytis cinerea, level ([4]; peptide 10 μM) | Plate antimicrobial activity test Botrytis cinerea, level ([4]; peptide 100 μM) | Plate antimicrobial activity test Fusarium oxysporum, level [5]

NKKVA (listed as Solanum lycopersicum) [TsORF6-1-5aa-13, partial peptide of TsORF6-1, 5 amino acid residues]
0: Plate antimicrobial activity test Colletotrichum destructivum, level ([1]; peptide 1 μM) | Plate antimicrobial activity test Colletotrichum destructivum, level ([1]; peptide 10 μM) | Plate antimicrobial activity test Colletotrichum destructivum, level ([1]; peptide 100 μM) | Plate antimicrobial activity test Colletotrichum orbiculare, level ([2]; peptide 1 μM) | Plate antimicrobial activity test Colletotrichum orbiculare, level ([2]; peptide 10 μM) | Plate antimicrobial activity test Colletotrichum orbiculare, level ([2]; peptide 100 μM) | Plate antimicrobial activity test Pyricularia oryzae, level ([3]; peptide 1 μM) | Plate antimicrobial activity test Pyricularia oryzae, level ([3]; peptide 10 μM) | Plate antimicrobial activity test Pyricularia oryzae, level ([3]; peptide 100 μM) | Plate antimicrobial activity test Botrytis cinerea, level ([4]; peptide 1 μM) | Plate antimicrobial activity test Botrytis cinerea, level ([4]; peptide 10 μM) | Plate antimicrobial activity test Botrytis cinerea, level ([4]; peptide 100 μM) | Plate antimicrobial activity test Fusarium oxysporum, level [5]

VVKTKVKN (listed as Solanum lycopersicum) [TsORF6-1-8aa-6, partial peptide of TsORF6-1, 8 amino acid residues]
0: Plate antimicrobial activity test Colletotrichum destructivum, level ([1]; peptide 1 μM) | Plate antimicrobial activity test Colletotrichum destructivum, level ([1]; peptide 10 μM) | Plate antimicrobial activity test Colletotrichum destructivum, level ([1]; peptide 100 μM) | Plate antimicrobial activity test Colletotrichum orbiculare, level ([2]; peptide 1 μM) | Plate antimicrobial activity test Colletotrichum orbiculare, level ([2]; peptide 10 μM) | Plate antimicrobial activity test Colletotrichum orbiculare, level ([2]; peptide 100 μM) | Plate antimicrobial activity test Pyricularia oryzae, level ([3]; peptide 1 μM) | Plate antimicrobial activity test Pyricularia oryzae, level ([3]; peptide 10 μM) | Plate antimicrobial activity test Pyricularia oryzae, level ([3]; peptide 100 μM) | Plate antimicrobial activity test Botrytis cinerea, level ([4]; peptide 1 μM) | Plate antimicrobial activity test Botrytis cinerea, level ([4]; peptide 10 μM) | Plate antimicrobial activity test Botrytis cinerea, level ([4]; peptide 100 μM) | Plate antimicrobial activity test Fusarium oxysporum, level [5]

TKVKN (listed as Solanum lycopersicum) [TsORF6-1-5aa-9, partial peptide of TsORF6-1, 5 amino acid residues]
0: Plate antimicrobial activity test Colletotrichum destructivum, level ([1]; peptide 1 μM) | Plate antimicrobial activity test Colletotrichum destructivum, level ([1]; peptide 10 μM) | Plate antimicrobial activity test Colletotrichum destructivum, level ([1]; peptide 100 μM) | Plate antimicrobial activity test Colletotrichum orbiculare, level ([2]; peptide 1 μM) | Plate antimicrobial activity test Colletotrichum orbiculare, level ([2]; peptide 10 μM) | Plate antimicrobial activity test Colletotrichum orbiculare, level ([2]; peptide 100 μM) | Plate antimicrobial activity test Pyricularia oryzae, level ([3]; peptide 1 μM) | Plate antimicrobial activity test Pyricularia oryzae, level ([3]; peptide 10 μM) | Plate antimicrobial activity test Pyricularia oryzae, level ([3]; peptide 100 μM) | Plate antimicrobial activity test Botrytis cinerea, level ([4]; peptide 1 μM) | Plate antimicrobial activity test Botrytis cinerea, level ([4]; peptide 10 μM) | Plate antimicrobial activity test Botrytis cinerea, level ([4]; peptide 100 μM) | Plate antimicrobial activity test Fusarium oxysporum, level [5]

TKVKNKKV (listed as Solanum lycopersicum) [TsORF6-1-8aa-9, partial peptide of TsORF6-1, 8 amino acid residues]
0: Plate antimicrobial activity test Colletotrichum destructivum, level ([1]; peptide 1 μM) | Plate antimicrobial activity test Colletotrichum destructivum, level ([1]; peptide 10 μM) | Plate antimicrobial activity test Colletotrichum destructivum, level ([1]; peptide 100 μM) | Plate antimicrobial activity test Colletotrichum orbiculare, level ([2]; peptide 1 μM) | Plate antimicrobial activity test Colletotrichum orbiculare, level ([2]; peptide 10 μM) | Plate antimicrobial activity test Colletotrichum orbiculare, level ([2]; peptide 100 μM) | Plate antimicrobial activity test Pyricularia oryzae, level ([3]; peptide 1 μM) | Plate antimicrobial activity test Pyricularia oryzae, level ([3]; peptide 10 μM) | Plate antimicrobial activity test Pyricularia oryzae, level ([3]; peptide 100 μM) | Plate antimicrobial activity test Botrytis cinerea, level ([4]; peptide 1 μM) | Plate antimicrobial activity test Botrytis cinerea, level ([4]; peptide 10 μM) | Plate antimicrobial activity test Botrytis cinerea, level ([4]; peptide 100 μM) | Plate antimicrobial activity test Fusarium oxysporum, level [5]

KTKVK (listed as Solanum lycopersicum) [TsORF6-1-5aa-8, partial peptide of TsORF6-1, 5 amino acid residues]
0: Plate antimicrobial activity test Colletotrichum destructivum, level ([1]; peptide 1 μM) | Plate antimicrobial activity test Colletotrichum destructivum, level ([1]; peptide 10 μM) | Plate antimicrobial activity test Colletotrichum destructivum, level ([1]; peptide 100 μM) | Plate antimicrobial activity test Colletotrichum orbiculare, level ([2]; peptide 1 μM) | Plate antimicrobial activity test Colletotrichum orbiculare, level ([2]; peptide 10 μM) | Plate antimicrobial activity test Colletotrichum orbiculare, level ([2]; peptide 100 μM) | Plate antimicrobial activity test Pyricularia oryzae, level ([3]; peptide 1 μM) | Plate antimicrobial activity test Pyricularia oryzae, level ([3]; peptide 10 μM) | Plate antimicrobial activity test Pyricularia oryzae, level ([3]; peptide 100 μM) | Plate antimicrobial activity test Botrytis cinerea, level ([4]; peptide 1 μM) | Plate antimicrobial activity test Botrytis cinerea, level ([4]; peptide 10 μM) | Plate antimicrobial activity test Botrytis cinerea, level ([4]; peptide 100 μM) | Plate antimicrobial activity test Fusarium oxysporum, level [5]

KVKNKKVA (listed as Solanum lycopersicum) [TsORF6-1-8aa-10, partial peptide of TsORF6-1, 8 amino acid residues]
0: Plate antimicrobial activity test Colletotrichum destructivum, level ([1]; peptide 1 μM) | Plate antimicrobial activity test Colletotrichum destructivum, level ([1]; peptide 10 μM) | Plate antimicrobial activity test Colletotrichum destructivum, level ([1]; peptide 100 μM) | Plate antimicrobial activity test Colletotrichum orbiculare, level ([2]; peptide 1 μM) | Plate antimicrobial activity test Colletotrichum orbiculare, level ([2]; peptide 10 μM) | Plate antimicrobial activity test Colletotrichum orbiculare, level ([2]; peptide 100 μM) | Plate antimicrobial activity test Pyricularia oryzae, level ([3]; peptide 1 μM) | Plate antimicrobial activity test Pyricularia oryzae, level ([3]; peptide 10 μM) | Plate antimicrobial activity test Pyricularia oryzae, level ([3]; peptide 100 μM) | Plate antimicrobial activity test Botrytis cinerea, level ([4]; peptide 1 μM) | Plate antimicrobial activity test Botrytis cinerea, level ([4]; peptide 10 μM) | Plate antimicrobial activity test Botrytis cinerea, level ([4]; peptide 100 μM) | Plate antimicrobial activity test Fusarium oxysporum, level [5]

VKTKV (listed as Solanum lycopersicum) [TsORF6-1-5aa-7, partial peptide of TsORF6-1, 5 amino acid residues]
0: Plate antimicrobial activity test Colletotrichum destructivum, level ([1]; peptide 1 μM) | Plate antimicrobial activity test Colletotrichum destructivum, level ([1]; peptide 10 μM) | Plate antimicrobial activity test Colletotrichum destructivum, level ([1]; peptide 100 μM) | Plate antimicrobial activity test Colletotrichum orbiculare, level ([2]; peptide 1 μM) | Plate antimicrobial activity test Colletotrichum orbiculare, level ([2]; peptide 10 μM) | Plate antimicrobial activity test Colletotrichum orbiculare, level ([2]; peptide 100 μM) | Plate antimicrobial activity test Pyricularia oryzae, level ([3]; peptide 1 μM) | Plate antimicrobial activity test Pyricularia oryzae, level ([3]; peptide 10 μM) | Plate antimicrobial activity test Pyricularia oryzae, level ([3]; peptide 100 μM) | Plate antimicrobial activity test Botrytis cinerea, level ([4]; peptide 1 μM) | Plate antimicrobial activity test Botrytis cinerea, level ([4]; peptide 10 μM) | Plate antimicrobial activity test Botrytis cinerea, level ([4]; peptide 100 μM) | Plate antimicrobial activity test Fusarium oxysporum, level [5]

IVVKTKVK (listed as Solanum lycopersicum) [TsORF6-1-8aa-5, partial peptide of TsORF6-1, 8 amino acid residues]
0: Plate antimicrobial activity test Colletotrichum destructivum, level ([1]; peptide 1 μM) | Plate antimicrobial activity test Colletotrichum destructivum, level ([1]; peptide 10 μM) | Plate antimicrobial activity test Colletotrichum destructivum, level ([1]; peptide 100 μM) | Plate antimicrobial activity test Colletotrichum orbiculare, level ([2]; peptide 1 μM) | Plate antimicrobial activity test Colletotrichum orbiculare, level ([2]; peptide 10 μM) | Plate antimicrobial activity test Colletotrichum orbiculare, level ([2]; peptide 100 μM) | Plate antimicrobial activity test Pyricularia oryzae, level ([3]; peptide 1 μM) | Plate antimicrobial activity test Pyricularia oryzae, level ([3]; peptide 10 μM) | Plate antimicrobial activity test Pyricularia oryzae, level ([3]; peptide 100 μM) | Plate antimicrobial activity test Botrytis cinerea, level ([4]; peptide 1 μM) | Plate antimicrobial activity test Botrytis cinerea, level ([4]; peptide 10 μM) | Plate antimicrobial activity test Botrytis cinerea, level ([4]; peptide 100 μM) | Plate antimicrobial activity test Fusarium oxysporum, level [5]

EELMVVAEEEAYRRVRGGMGW (listed as Solanum lycopersicum) [TsORF6-3, chemically synthesized region of TsORF6]
0: Plate antimicrobial activity test Colletotrichum destructivum, level ([1]; peptide 1 μM) | Plate antimicrobial activity test Colletotrichum destructivum, level ([1]; peptide 10 μM) | Plate antimicrobial activity test Colletotrichum destructivum, level ([1]; peptide 100 μM) | Plate antimicrobial activity test Colletotrichum orbiculare, level ([2]; peptide 1 μM) | Plate antimicrobial activity test Colletotrichum orbiculare, level ([2]; peptide 10 μM) | Plate antimicrobial activity test Colletotrichum orbiculare, level ([2]; peptide 100 μM) | Plate antimicrobial activity test Pyricularia oryzae, level ([3]; peptide 1 μM) | Plate antimicrobial activity test Pyricularia oryzae, level ([3]; peptide 10 μM) | Plate antimicrobial activity test Pyricularia oryzae, level ([3]; peptide 100 μM) | Plate antimicrobial activity test Botrytis cinerea, level ([4]; peptide 1 μM) | Plate antimicrobial activity test Botrytis cinerea, level ([4]; peptide 10 μM) | Plate antimicrobial activity test Botrytis cinerea, level ([4]; peptide 100 μM) | Plate antimicrobial activity test Fusarium oxysporum, level [5]
